Assay results taken from publication PMC11674305, “Inhibition of Neural Crest Cell Migration by Strobilurin Fungicides and Other Mitochondrial Toxicants” (Cells, 2024).
Values joined by “and” are separate entries in the source; they are usually repeats but may differ in a detail not shown here. Identical values can stand only once. Like-named read-outs stand apart in the source and are kept apart here.

How the values were obtained:
Type in all cases: cell-based, human
[1] = system: neural crest cells (NCC); assay: cMINC (UKN2) assay: circular migration of neural crest cells, with viability; conditions: for BMC25 (M): migration; for Migration / Viability: Pre-Screen 1, single concentration 1:1000 of stock, in most cases 100 μM; for Ratio: migration/cytotoxicity ratio, hit requires ≥ 1.3, HTC used where no viability effect
Method: The research group initially developed the first version of the test in 2012 [40]. The test has been further improved and characterized. To perform the cMINC assay, NCCs were thawed in N2-S Medium and seeded on the day of migration-1 (DoM-1) on a 96-well polystyrene plate (Corning, Glendale, AZ, USA) around stoppers, to create a cell-free area of 2 mm diameter (Platypus Technologies, Madison, WI, USA). The cells were resuspended in N2-S Medium supplemented with […] of the cytokines EGF and FGF, and then counted and seeded around the stoppers at a density of 95,000 cells/cm^2. After 24 h, the stoppers were removed, and the medium was exchanged. The removal of the stoppers initiates migration of the NCCs into the cell-free area. For the treatment, the 5x-concentrated toxicant solution was added to the medium 24 h after stopper removal.
On day 2, cells were stained with 533 nM calcein-AM and 1 μg/mL H-33342 (both from Sigma, Steinheim, Germany) and observed using two different channels on the Cellomics ArrayScan VTI imaging microscope (Thermo Fisher, Pittsburgh, PA, USA) to assess viability and migration. For the migration, four pictures were taken in the region of interest (ROI) (5× magnification objective). Migration data were obtained using the software “Ringassay” (http://invitrotox.uni-konstanz.de/ (accessed on 3 November 2024)), which can estimate the previously cell-free area and count the number of H-33342 and calcein-AM double-positive cells. Cell viability was assessed by taking four pictures outside of the ROI with 10× magnification objective. Viable cells were defined as H-33342 and calcein-AM double-positive cells and calculated by an automatic algorithm of the ArrayScan VTI 700 Series software as described earlier. […] Each plate included wells for testing of negative (0.1% DMSO solvent) and positive controls (200 nM cytochalasin D) in addition to the wells for blinded samples. The data from control wells were used as acceptance criteria of the assay. […] Renormalization of the concentration–response curves was performed after a visual inspection that the two lowest test-concentration data points are in the no-effect range. The average response (relative to solvent control) of the lowest two test concentrations was calculated, and all other data points of the same curve were divided by this average value. The calculations of the benchmark concentrations 10 for viability (BMC10 (V)) and 25 for migration (BMC25 (M)) were performed with the online available BMC software (http://invitrotox.uni-konstanz.de/ (accessed on 4 November 2024)).

[2] = system: neural crest cells (NCC); assay: Seahorse oxygen consumption rate (mitochondrial stress test); conditions: at BMC10 (V) of cMINC, after basal respiration recording
Method: The Seahorse bioanalyzer simultaneously measures cellular oxygen consumption rates (OCR) and extracellular acidification rates (ECAR). Therefore, NCCs were seeded at least two days prior to the assays at a density of 80,000 cells/well on Seahorse XF96 V3 PS Cell Culture Microplates (Agilent, Santa Clara, CA, USA) in either glucose medium or galactose medium. After 24 h, the medium was exchanged. For the real-time ATP production rate and mitochondrial stress assay, the cartridge was hydrated at 0% CO2 and 37 °C, and the seahorse was turned on to stabilize the temperature one day prior. The medium was changed to Seahorse XF DMEM Medium (Agilent, Santa Clara, CA, USA) supplemented with 2 mM L-glutamine, 1 mM pyruvate and 18 mM glucose or galactose 1 h before the start of the assays. Directly before the start of the assay, the medium was exchanged again. The sensor cartridge was loaded with the test compounds anchored to the BMC10 (V) of the cMINC screen and the recommended concentrations of calibration compounds for a mitochondrial stress test. These were 5 μM oligomycin, 15 μM carbonyl cyanide p-trifluoro methoxyphenylhydrazone (FCCP) and 5 μM rotenone plus 5 μM antimycin A. Additionally, 1 μg/mL H-33342 was added to the rotenone and antimycin A injection to perform afterwards a cell count (Cellomics, Waltham, MA, USA), to which the data were normalized. Six technical replicates were used for control conditions, and three technical replicates were used for other samples. The software Seahorse Analytics (Agilent, Santa Clara, CA, USA) was used for the evaluation (https://seahorseanalytics.agilent.com (accessed on 30 October 2024)).

[3] = system: neural crest cells (NCC); assay: Transwell migration assay (FBS chemoattractant, 6 h); conditions: for effect on transwell migration: negative controls, 100 µM
Method: Cells were seeded at a density of 50,000 cells/well (150,000 cells/cm^2) into the upper chamber (insert) of the 96-well transwell plates (pore size 8 μm, polycarbonate membrane, Corning, Glendale, AZ, USA). The cells were stimulated to migrate through the membrane by medium supplemented with 5% of the chemoattractant fetal bovine serum (FBS) (PAA Laboratories, Pasching, Austria) in the lower chamber (reservoir). For testing of migration inhibition upon compound treatment, compounds were used at a concentration of BMC10 (V) of prior cMINC testing. Three technical replicates per condition were used. As a control for “unstimulated” migration, medium without any chemoattractant was tested. As an endpoint specific control for “inhibited” migration, CytoD with a concentration of 200 nM was used. After 6 h incubation time, the medium was aspirated, and reservoirs were washed with DPBS. Afterwards, reservoirs were filled with EDTA dissociation solution (DPBS supplemented with 0.1% 0.5 M EDTA UltraPure pH 8.0 (Thermo Fisher Scientific, Waltham, MA, USA), and 0.18% NaCl) containing 0.25 μL/mL calcein-AM and incubated for 30 min at 37 °C. The plates were then centrifuged at 300× g for 5 min (1200 rpm, Heraeus Multifuge 1 S-R, ThermoScientific) to remove migrated cells from the membrane. The tray with 96 wells of permeable inserts was removed, and the receiver plate was measured in the spectrophotometer (TECAN, Männedorf, Switzerland) with an emission wavelength of 520 nm. After subtraction of the blank values, the number of migrated cells was normalized to that of cells stimulated with FBS.
To perform the experiments under mitochondria-dependent conditions, the cells were handled exactly in the same way, but the medium was adapted. The N2-S medium was adjusted, so that no glucose was present but galactose. The medium consisted of SILAC^TM Advanced DMEM/-F12 FLEX (Gibco/Fisher Scientific, Hampton, NH, USA), 15 μg/mL insulin, 400 μM GlutaMAX, 0.7 mM L-Arginine, 0.5 mM L-Lysine, 21.5 µM Phenol Red, 20 nM progesterone, 100 μM putrescine and 30 nM selenium, 92.5 μg/mL apotransferrin, 4.7 mg/mL galactose (18 mM). The cytokines 20 ng/mL EGF and 20 ng/mL FGF2 were always freshly added to each run.

[4] = system: neural crest cells (NCC); assay: Intracellular ATP measurement (CellTiterGlo); conditions: at BMC10 (V) of cMINC; for ATP levels: after 60 min
Method: Cells were seeded at a density of 20,000 cells/well. The NCCs were treated with the BMC10 (V) of the cMINC screen for one hour, six hours or 24 h. Then, a CellTiterGlo-Triton mix was prepared. Therefore, a 0.5% Triton solution in PBS was prepared, and the commercial reagent mix CellTiterGlo 2.0 (Promgea, Madison, WI, USA) was added in a 1:1 ratio. An amount of 50 µL/well of the mix was added to 100 µL of medium. The plate was shaken for two minutes, and 100 µL of the cell mixture was transferred to a white measurement plate. For the blank value, only medium with the mix was measured. Luminescence data of samples were normalized to DMSO solvent controls, and the ATP data are given in % relative to “untreated cells”.

[5] = Homo sapiens, 24 h, primary screen, 24 h exposure, read-out: BMC25
[6] = viability, primary screen, 24 h exposure, * = no effect up to highest tested concentration

Structure (SMILES) | BMC25 (M) [1, 5] | Migration [1] | Ratio [1] | effect on oxygen consumption rate (OCR) after injection [2] | Viability [1] | BMC10 (V) [1, 6] | other results
Cc1ccc(-c2c(Cl)nc(C#N)n2S(=O)(=O)N(C)C)cc1 [Cyazofamid, cyazofamid] | 7.8e-06 M | 29 % of control | 2.6 | the OCR increased continuously |  |  | BMC10 (V) ([1]; human, 24 h): 20 µM
C=C1[C@@H](C)[C@H]2[C@H](Cc3ccccc3)NC(=O)[C@]23[C@H](OC(C)=O)/C=C/[C@@](C)(O)C(=O)[C@@H](C)C/C=C/[C@H]3[C@@H]1O [cytochalasin D, Cytochalasin D] |  |  |  |  |  |  | reduced migration ([3]; 200 nM, positive control): 75%
O=C1O[C@H]([C@@H](O)CO)C(O)=C1O [L-ascorbic acid, reference compound] |  | 100 % of control |  |  |  |  | effect on transwell migration [3]: no inhibited migration was observed
Cc1nn(C)c(Oc2ccccc2)c1C=NOCc1ccc(C(=O)OC(C)(C)C)cc1 [Fenpyroximate, fenpyroximate] | 3e-06 M | 38 % of control | 1.9 | completely shut down the mitochondrial respiration | 95 % of control | 7 µM and 6.6 µM | ATP levels [4]: did not decrease; decrease in ATP levels ([4]; after 6 h): > 25%
CO/N=C(/C(=O)OC)c1ccccc1COc1ccccc1C [Kresoxim-methyl, kresoxim-methyl] | 2.7e-05 M | 72 % of control | 1.6 |  | 33 % of control | 43 µM | 
CO/N=C(/C1=NOCCO1)c1ccccc1Oc1ncnc(Oc2ccccc2Cl)c1F [Fluoxastrobin, fluoxastrobin] | 2e-05 M | 60 % of control | 4.6 |  | 95 % of control | > 100 µM | effect on viability in the tested concentration range ([1]; primary screen): did not reduce viability at all
O=[N+]([O-])c1cc(C(F)(F)F)c(Cl)c([N+](=O)[O-])c1Nc1ncc(C(F)(F)F)cc1Cl [Fluazinam, fluazinam] | 4e-07 M | 0 % of control | 2.0 | no decrease in OCR | 2 % of control | 0.8 µM | decline of ATP ([4]; after 1 h): > 25%; decline of ATP ([4]; after 24 h): > 90%
COC(=O)N(OC)c1ccccc1COc1ccn(-c2ccc(Cl)cc2)n1 [Pyraclostrobin, pyraclostrobin] | 1.7e-05 M | 72 % of control | 2.6 |  | 97 % of control | 44 µM | ATP levels [4]: did not decrease
CON=C(C(=O)OC)c1ccccc1CON=C(C)c1cccc(C(F)(F)F)c1 [Trifloxystrobin, trifloxystrobin] | 1.3e-05 M | 85 % of control | 1.4 |  |  |  | BMC10 (V) ([1]; human, 24 h): 18 µM
CO/C=C(/C(=O)OC)c1ccccc1Oc1cc(Oc2ccccc2C#N)ncn1 [Azoxystrobin, azoxystrobin] |  | 59 % of control | 3.5 |  | 95 % of control | > 100 µM | BMC25 (M) ([1]; primary screen, 24 h exposure): 2.9e-05 M and 3e-05 M; effect on viability in the tested concentration range ([1]; primary screen): did not reduce viability at all; ATP levels [4]: did not decrease
CC(C)(C)c1ccc(CSc2cnn(C(C)(C)C)c(=O)c2Cl)cc1 [Pyridaben, pyridaben] | 4.7e-05 M | 58 % of control | 1.8 | completely shut down the mitochondrial respiration |  |  | BMC10 (V) ([1]; human, 24 h): 83 µM
C=C(C)[C@H]1Cc2c(ccc3c2O[C@@H]2COc4cc(OC)c(OC)cc4[C@@H]2C3=O)O1 [Rotenone, rotenone] |  | 0 % of control | 1.9 |  | 0 % of control | 0.1 µM | IC25 ([1]; Homo sapiens, 24 h, read-out: BMC25 (M)): 6e-08 M
CCOCn1c(-c2ccc(Cl)cc2)c(C#N)c(Br)c1C(F)(F)F [Chlorfenapyr, chlorfenapyr] | 5.1e-06 M | 0 % of control | 1.3 | no decrease in OCR |  |  | BMC10 (V) ([1]; human, 24 h): 6.8 µM; decline of ATP ([4]; after 1 h): > 25%; decline of ATP ([4]; after 24 h): > 90%
O=C1NS(=O)(=O)c2ccccc21 [Saccharin sodium hydrate, reference compound] |  | 103 % of control |  |  |  |  | effect on transwell migration [3]: no inhibited migration was observed
